In data set [1] the test system is L929 (murine fibroblasts). In words: Cytotoxicity MTT assay. The format is cell-based, mice. The conditions noted are these: peptide 1 mg mL^−1, MMS 4 × 10^−5 M, absorbance 595 nm, three independent experiments. The method, then:
(§1) The cytotoxicity assay was assessed by measuring the ability of live cells to convert a yellow dye, 3-(4,5-dimethyl-2-thiozolyl)-2,5-diphenyl-2H-tetrazolium bromide (MTT), to formazan. The cell lines used were L929 (murine fibroblasts, ATCC number CCL-1), MRC-5 (human lung fibroblasts, ATCC number CCL-171), and HaCaT (human keratinocytes) following the methodology described by Souza et al.. Cells were treated with Mo-CBP3-PepI at 1 mg mL^−1. The alkylating agent methyl methanesulfonate (MMS) at 4 × 10^−5 M was used as the positive control. The MTT formazan product was dissolved in 150 µL of DMSO, and the absorbance was measured using a multiplate reader (Spectra Count, Packard, Mississauga, ON, Canada). The drug effect was quantified as the percentage of control absorbance of the reduced dye at 595 nm.

For data set [2], the system named is HaCaT (human keratinocytes). In words: Cytotoxicity MTT assay. The format is cell-based. To be noted: peptide 1 mg mL^−1, MMS 4 × 10^−5 M, absorbance 595 nm, three independent experiments. As for the experimental part: as §1
For orientation: Tetrazolium assays rely on reduction of a dye to a coloured formazan, in cell work by metabolically active cells.

The test system of data set [3] is MRC-5 (human lung fibroblasts). In words: Cytotoxicity MTT assay. In kind it is cell-based. To be noted: peptide 1 mg mL^−1, MMS 4 × 10^−5 M, absorbance 595 nm, three independent experiments. As for the experimental part: as §1
Data set [4] relates to L929 cells. In words: Alkaline comet assay (DNA damage). In kind it is cell-based, mice. To be noted: MMS 4 × 10^−5 M, 24 h. As for the experimental part: (§2) For this assay, MMS at 4 × 10^−5 M was used as the positive control for DNA damage, and peptides were assayed at 1 mg mL^−1. The standard alkaline comet assay (single-cell gel electrophoresis) after treatment (24 h). Cells were washed with ice-cold PBS, trypsinized, and resuspended in a complete medium. […] Afterward, the slides were placed in a horizontal electrophoresis unit and incubated with fresh buffer solution (0.3 M NaOH, 0.001 M EDTA, pH 13.0) at 4 °C for 20 min to allow DNA to unwind and the expression of alkali-labile sites. Electrophoresis was conducted for 20 min at 25 V ([…]). All the above steps were performed in the dark to prevent additional DNA damage. Slides were neutralized (0.4 M Tris, pH 7.5) and stained using 20 µg mL of ethidium bromide. Three hundred cells (100 cells from each of the three replicate slides for each treatment) were selected, coded, and blindly analyzed for DNA migration. These cells were visually scored according to tail length into five classes: • Class 0: undamaged, without a tail; • Class 1: with a tail shorter than the diameter of the head nucleus; • Class 2: with tail length 1–2× the diameter of the head; • Class 3: with a tail longer than 2× the diameter of the head; • Class 4: comets with no heads. The index of damage (ID) value was calculated for each sample. […]

The subject of data set [5] is HaCaT cells. In words: Alkaline comet assay (DNA damage). The conditions noted are these: peptide 1 mg mL^−1, MMS 4 × 10^−5 M, 24 h. In kind it is cell-based, human. The method, then: as §2
Data set [6] deals with MRC-5 cells. In words: Alkaline comet assay (DNA damage). In kind it is cell-based, human. The conditions noted are these: peptide 1 mg mL^−1, MMS 4 × 10^−5 M, 24 h. As for the experimental part:
as §2

The subject of data set [7] is L929 cells. In words: Morphological analysis of apoptotic cells (AO/EB staining). The format is cell-based, mice. To be noted: peptide 1 mg mL^−1, MMS 4 × 10^−5 M, 24 h. The method, then:
(§3) For this assay, the concentration of peptides was 1 mg mL^−1. […] Peptides and control solutions were incubated as described above. Cells with the morphological characteristics of apoptosis, such as apoptotic bodies, peripheral condensation of chromatin, fragmented nucleus, and small cell volume, were evaluated after 24 h of treatment, either with controls or peptides. The evaluation was executed using acridine orange (AO)/ethidium bromide (EB) staining assay. A total of 50 µL of the cell suspension was mixed with 1 µL of the staining solution (100 µg/mL AO + 100 µg/mL EB in PBS) and spread on a slide, where 300 cells were counted per data point.

For data set [8], the system named is HaCaT cells. Described as above. The format is cell-based, human. The conditions noted are these: peptide 1 mg mL^−1, MMS 4 × 10^−5 M, 24 h. As for the experimental part: as §3
The test system of data set [9] is MRC-5 cells. The data set is described as above. In kind it is cell-based, human. The conditions noted are these: peptide 1 mg mL^−1, MMS 4 × 10^−5 M, 24 h. As for the experimental part: as §3

As for `COS(C)(=O)=O` [MMS, methyl methanesulfonate], the “cell viability (MTT)” value in data set [1], in data set [2] and in data set [3] was “death of all cells” each time. In addition, the “DNA damage (comet assay)” value in data set [4], in [5] and in data set [6] was “completely damaged DNA” each time. In addition, the “cell morphology / apoptosis” value in [7] was “severe damage to DNA and nuclei structure”; in [8], “severe damage to DNA and nuclei structure”; in [9], “severe damage to DNA and nuclei structure”.

The values above are taken from PMC9774128, “New Insights into the Mechanism of Antibacterial Action of Synthetic Peptide Mo-CBP3-PepI against Klebsiella pneumoniae” (Antibiotics, 2022).
